Laboratory results reported in ChEMBL document CHEMBL4765492, “Discovery of GLPG2451, a Novel Once Daily Potentiator for the Treatment of Cystic Fibrosis” (J Med Chem, 2021).
≈ marks a conversion by molar mass, not a printed value. Calls of active or inactive are those of the source. The rule behind the calls is not given here.

Tests used:
[1] = Unbound intrinsic clearance in rat liver microsomes; format: ADME, Microsome
[2] = target: Cystic fibrosis transmembrane conductance regulator (Homo sapiens, UniProt P13569, F508DEL); test: Potentiation of CFTR F508del mutant (unknown origin) expressed in human CFBE41o- cells co-expressing YFP incubated for 10 mins by halide potentiator assay; format: cell-based
[3] = Permeability of compound across apical to basolateral membrane in MDCK cells; format: ADME, cell-based, Canis lupus familiaris; conditions: dog, read-out: permeability
[4] = Permeability efflux ratio in MDCK cells; format: ADME, cell-based, Canis lupus familiaris; conditions: dog
[5] = Unbound intrinsic clearance in rat hepatocytes; format: ADME, cell-based, Hepatocyte
[6] = AUC in rat at 5 mg/kg, po; format: ADME, organism-based; set-up: dose 5 mg/kg; conditions: in vivo
[7] = Genotoxicity in Salmonella typhimurium; format: toxicity; conditions: salmonella enterica subsp. enterica serovar typhimurium
[8] = Inhibition of CYP450 (unknown origin); format: ADME; conditions: human
[9] = Kinetic aqueous solubility of the compound at pH 7.4; format: physicochemical; conditions: buffer, read-out: Kinetic_solubility
[10] = target: T1, Nuclear receptor subfamily 1 group I member 2 (Homo sapiens, UniProt O75469); test: Activation of PXR (unknown origin) at 10 uM by CYP450 induction assay relative to rifampicin; format: ADME
T1 sequence (O75469 whole entry): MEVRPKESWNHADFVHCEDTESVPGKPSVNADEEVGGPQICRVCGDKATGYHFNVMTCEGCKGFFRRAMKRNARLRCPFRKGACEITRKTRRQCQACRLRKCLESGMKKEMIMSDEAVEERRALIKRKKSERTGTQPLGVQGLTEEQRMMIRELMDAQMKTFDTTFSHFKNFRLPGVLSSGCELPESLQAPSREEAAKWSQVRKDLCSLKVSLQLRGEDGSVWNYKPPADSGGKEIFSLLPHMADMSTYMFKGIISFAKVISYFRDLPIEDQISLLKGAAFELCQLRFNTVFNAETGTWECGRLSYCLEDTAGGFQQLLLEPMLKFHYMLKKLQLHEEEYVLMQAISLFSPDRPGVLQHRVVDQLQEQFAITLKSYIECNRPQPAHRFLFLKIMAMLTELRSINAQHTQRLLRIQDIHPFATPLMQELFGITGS

[11] = tested on: Cystic fibrosis transmembrane conductance regulator (Homo sapiens), P13569 [G551D]; test: Potentiation of CFTR G551D mutant (unknown origin) expressed in human HEK293 cells co-expressing YFP incubated for 10 mins by halide potentiator assay relative to control; format: cell-based; conditions: filed as activator
[12] = Clearance in Sprague-Dawley rat at 1 mg/kg, iv; format: ADME, organism-based; conditions: in vivo
[13] = Unbound clearance in Sprague-Dawley rat at 1 mg/kg, iv; format: ADME, organism-based; conditions: in vivo
[14] = Volume of distribution at steady state in Sprague-Dawley rat at 1 mg/kg, iv; format: ADME, organism-based; conditions: in vivo, read-out: Vdss
[15] = Half life in Sprague-Dawley rat at 1 mg/kg, iv; format: ADME, organism-based; conditions: in vivo
[16] = Unbound intrinsic clearance in human liver microsomes; format: ADME, Microsome
[17] = tested on: Cystic fibrosis transmembrane conductance regulator (Homo sapiens), P13569 [F508del,G551D]; test: Potentiation of CFTR F508del/G551D mutant in human HBE cells assessed as increase in channel current at 10 nM to 1000 nM incubated for 20 mins by Ussing chamber assay; format: cell-based; conditions: Primary bronchial epithelial cell, filed as activator
Cystic fibrosis transmembrane conductance regulator (Homo sapiens), P13569 [F508del,G551D], sequence (P13569 as listed by the source): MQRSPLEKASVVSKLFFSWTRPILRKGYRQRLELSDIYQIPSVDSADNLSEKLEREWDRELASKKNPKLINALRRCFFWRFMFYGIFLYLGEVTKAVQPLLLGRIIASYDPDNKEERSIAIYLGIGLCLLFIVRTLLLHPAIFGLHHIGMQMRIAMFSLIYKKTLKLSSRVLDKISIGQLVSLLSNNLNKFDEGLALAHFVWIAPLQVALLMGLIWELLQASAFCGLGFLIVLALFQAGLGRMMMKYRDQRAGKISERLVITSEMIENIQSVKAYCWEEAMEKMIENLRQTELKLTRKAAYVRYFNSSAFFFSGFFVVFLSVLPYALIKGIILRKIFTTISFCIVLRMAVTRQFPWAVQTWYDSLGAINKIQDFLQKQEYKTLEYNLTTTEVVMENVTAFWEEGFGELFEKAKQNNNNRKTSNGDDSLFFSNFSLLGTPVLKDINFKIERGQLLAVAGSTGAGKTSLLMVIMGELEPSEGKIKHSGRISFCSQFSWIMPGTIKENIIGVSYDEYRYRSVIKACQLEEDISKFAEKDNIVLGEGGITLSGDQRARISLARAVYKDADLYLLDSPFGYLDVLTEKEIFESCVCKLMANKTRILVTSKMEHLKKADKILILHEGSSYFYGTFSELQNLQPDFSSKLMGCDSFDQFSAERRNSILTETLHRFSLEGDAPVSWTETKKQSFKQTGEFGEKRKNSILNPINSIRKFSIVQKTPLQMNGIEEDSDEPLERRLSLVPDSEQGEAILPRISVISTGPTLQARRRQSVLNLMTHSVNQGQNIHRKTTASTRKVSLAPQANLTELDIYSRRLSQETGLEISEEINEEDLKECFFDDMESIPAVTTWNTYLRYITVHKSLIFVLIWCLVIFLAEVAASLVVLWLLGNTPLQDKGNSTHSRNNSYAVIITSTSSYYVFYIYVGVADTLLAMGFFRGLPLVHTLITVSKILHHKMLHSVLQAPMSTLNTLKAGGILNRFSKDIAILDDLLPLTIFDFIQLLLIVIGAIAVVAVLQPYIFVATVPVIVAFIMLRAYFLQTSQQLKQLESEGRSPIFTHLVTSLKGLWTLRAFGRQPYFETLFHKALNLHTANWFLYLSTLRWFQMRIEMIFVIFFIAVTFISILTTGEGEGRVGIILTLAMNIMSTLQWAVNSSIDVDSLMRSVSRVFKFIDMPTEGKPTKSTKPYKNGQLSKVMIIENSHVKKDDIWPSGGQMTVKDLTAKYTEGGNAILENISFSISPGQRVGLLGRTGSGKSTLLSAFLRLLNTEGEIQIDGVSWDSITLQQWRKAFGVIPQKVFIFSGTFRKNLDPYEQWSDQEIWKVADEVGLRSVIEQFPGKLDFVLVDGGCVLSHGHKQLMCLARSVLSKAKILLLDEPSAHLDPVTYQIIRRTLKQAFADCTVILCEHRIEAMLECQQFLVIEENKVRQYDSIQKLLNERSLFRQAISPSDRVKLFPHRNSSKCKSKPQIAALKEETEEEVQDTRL

Cystic fibrosis transmembrane conductance regulator, sequence (P13569 as listed by the source): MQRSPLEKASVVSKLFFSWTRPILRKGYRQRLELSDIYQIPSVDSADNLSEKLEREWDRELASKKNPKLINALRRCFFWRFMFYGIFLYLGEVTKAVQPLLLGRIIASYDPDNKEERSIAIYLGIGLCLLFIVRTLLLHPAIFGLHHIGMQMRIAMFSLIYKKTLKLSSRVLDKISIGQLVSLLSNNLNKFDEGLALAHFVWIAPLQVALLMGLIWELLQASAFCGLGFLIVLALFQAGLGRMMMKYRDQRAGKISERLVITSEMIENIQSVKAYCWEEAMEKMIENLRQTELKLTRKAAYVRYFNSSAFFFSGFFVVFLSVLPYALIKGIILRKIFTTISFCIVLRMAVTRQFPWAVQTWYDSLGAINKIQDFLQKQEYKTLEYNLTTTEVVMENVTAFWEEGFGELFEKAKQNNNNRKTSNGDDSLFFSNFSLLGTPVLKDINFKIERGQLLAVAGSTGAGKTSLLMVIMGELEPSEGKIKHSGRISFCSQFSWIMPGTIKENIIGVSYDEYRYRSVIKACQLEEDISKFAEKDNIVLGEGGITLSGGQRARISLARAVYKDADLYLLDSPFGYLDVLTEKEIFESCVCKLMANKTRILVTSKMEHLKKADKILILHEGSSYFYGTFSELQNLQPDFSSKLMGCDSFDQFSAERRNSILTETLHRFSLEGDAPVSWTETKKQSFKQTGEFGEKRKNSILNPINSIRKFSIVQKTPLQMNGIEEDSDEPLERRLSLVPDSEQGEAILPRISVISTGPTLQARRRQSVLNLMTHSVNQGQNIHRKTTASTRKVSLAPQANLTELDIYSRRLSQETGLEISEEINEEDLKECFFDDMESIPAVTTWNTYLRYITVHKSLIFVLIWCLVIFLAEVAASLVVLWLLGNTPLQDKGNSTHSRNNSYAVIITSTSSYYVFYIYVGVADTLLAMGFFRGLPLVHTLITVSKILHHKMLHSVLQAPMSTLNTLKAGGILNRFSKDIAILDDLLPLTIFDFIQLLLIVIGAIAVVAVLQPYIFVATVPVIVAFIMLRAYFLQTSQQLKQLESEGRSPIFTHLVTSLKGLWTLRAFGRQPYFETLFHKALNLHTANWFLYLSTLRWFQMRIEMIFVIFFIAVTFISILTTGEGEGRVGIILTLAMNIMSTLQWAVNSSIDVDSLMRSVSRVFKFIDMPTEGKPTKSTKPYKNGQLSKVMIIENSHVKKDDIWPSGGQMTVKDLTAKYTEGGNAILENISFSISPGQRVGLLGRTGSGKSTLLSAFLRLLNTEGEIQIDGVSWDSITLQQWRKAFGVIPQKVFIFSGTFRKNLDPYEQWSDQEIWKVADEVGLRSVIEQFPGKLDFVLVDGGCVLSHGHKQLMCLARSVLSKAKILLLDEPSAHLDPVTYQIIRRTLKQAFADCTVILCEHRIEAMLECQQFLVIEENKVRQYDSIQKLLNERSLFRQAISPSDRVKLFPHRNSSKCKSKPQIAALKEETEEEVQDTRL
Cystic fibrosis transmembrane conductance regulator (Homo sapiens), P13569 [G551D], sequence (P13569 whole entry G551D): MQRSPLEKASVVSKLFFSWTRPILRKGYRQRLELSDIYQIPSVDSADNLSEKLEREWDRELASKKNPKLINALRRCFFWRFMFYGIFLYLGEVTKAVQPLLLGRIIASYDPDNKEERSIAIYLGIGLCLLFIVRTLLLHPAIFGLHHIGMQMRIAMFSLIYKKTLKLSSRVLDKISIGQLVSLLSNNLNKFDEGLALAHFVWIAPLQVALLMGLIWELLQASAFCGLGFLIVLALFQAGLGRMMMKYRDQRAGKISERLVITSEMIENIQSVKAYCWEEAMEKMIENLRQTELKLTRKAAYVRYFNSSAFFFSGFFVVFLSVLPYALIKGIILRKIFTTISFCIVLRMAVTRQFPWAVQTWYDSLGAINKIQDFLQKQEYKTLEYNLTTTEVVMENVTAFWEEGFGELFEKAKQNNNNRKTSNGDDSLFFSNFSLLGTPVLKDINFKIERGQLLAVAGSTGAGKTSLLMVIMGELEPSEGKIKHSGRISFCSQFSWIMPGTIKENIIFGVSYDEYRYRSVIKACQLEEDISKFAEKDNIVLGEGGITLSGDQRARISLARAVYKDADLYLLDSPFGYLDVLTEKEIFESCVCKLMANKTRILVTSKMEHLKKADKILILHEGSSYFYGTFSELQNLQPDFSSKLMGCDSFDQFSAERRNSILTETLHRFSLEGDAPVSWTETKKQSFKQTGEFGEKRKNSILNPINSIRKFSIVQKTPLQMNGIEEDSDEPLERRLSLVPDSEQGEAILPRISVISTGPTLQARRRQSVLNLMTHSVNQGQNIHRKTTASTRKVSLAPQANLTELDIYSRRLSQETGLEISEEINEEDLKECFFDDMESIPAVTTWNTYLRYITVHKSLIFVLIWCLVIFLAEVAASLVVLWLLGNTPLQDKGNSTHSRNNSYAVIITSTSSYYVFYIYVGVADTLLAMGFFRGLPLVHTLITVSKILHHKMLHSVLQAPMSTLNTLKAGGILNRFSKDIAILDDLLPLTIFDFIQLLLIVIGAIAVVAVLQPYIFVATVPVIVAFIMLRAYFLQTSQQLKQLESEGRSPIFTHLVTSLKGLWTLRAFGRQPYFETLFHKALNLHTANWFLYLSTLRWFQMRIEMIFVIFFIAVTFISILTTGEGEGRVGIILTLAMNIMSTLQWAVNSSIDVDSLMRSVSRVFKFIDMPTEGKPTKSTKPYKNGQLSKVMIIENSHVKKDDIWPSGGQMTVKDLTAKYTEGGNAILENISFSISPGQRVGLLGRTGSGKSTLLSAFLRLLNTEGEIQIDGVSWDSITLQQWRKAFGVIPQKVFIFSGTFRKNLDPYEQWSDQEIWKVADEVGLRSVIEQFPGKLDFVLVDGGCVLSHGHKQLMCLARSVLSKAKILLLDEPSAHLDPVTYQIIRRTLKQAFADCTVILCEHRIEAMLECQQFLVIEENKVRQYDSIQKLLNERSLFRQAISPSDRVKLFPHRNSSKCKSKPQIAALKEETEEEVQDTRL

| CL free [1] [L/h/kg] | EC50 [2] [nM] | Papp A→B [3] [×10⁻⁶ cm/s] | efflux ratio [4] | SMILES | also measured |
| --- | --- | --- | --- | --- | --- |
| 1.7 | 1.1 |  |  | Nc1cc(S(=O)(=O)c2ccc(F)cc2)cnc1C(=O)N1CC(O)(C(F)(F)F)C1 |  |
| 1.8 | 26 | 4 | 5 | CC(C)(O)C(=O)Nc1sc(S(=O)(=O)c2ccc(F)cc2)cc1C(N)=O | CL free [5]: 2.8 L/h/kg; AUC [6]: 5600 ng·h/mL |
| 5.6 | 33 |  |  | CC(C)(O)CNC(=O)c1ncc(S(=O)(=O)c2ccc(OC(F)(F)F)cc2)cc1N | Activity [7]: Non-Toxic; inhibition (INH) [8]: Not Active; solubility kinetic [9]: 37 µM (≈ 16 µg/mL); Activity [10]: 41% |
| 15 | 13 | 0.5 | 40 | NC(=O)c1cc(S(=O)(=O)N2CCCCC2)sc1NC(=O)c1ccn[nH]1 |  |
| 6.3 | 352 |  |  | CC(C)(C)C(=O)Nc1sc(S(=O)(=O)c2ccc(F)cc2)cc1C(N)=O |  |
| 4.6 | 79 | 1 | 137 | NC(=O)c1cc(S(=O)(=O)c2ccc(F)cc2)sc1NC(=O)C1(O)CC1 | CL free [5]: 6.4 L/h/kg; AUC [6]: 500 ng·h/mL |
|  |  |  |  | CC(C)(C)c1cc(C(C)(C)C)c(NC(=O)c2c[nH]c3ccccc3c2=O)cc1O | Activity [11]: 53% |
| 3.5 | 3.4 |  |  | Nc1cc(S(=O)(=O)c2ccc(OC(F)(F)F)cc2)cnc1C(=O)NC[C@@H](O)C(F)(F)F | clearance [12]: 1.33 mL/min/kg; CL free [13]: 5.2 L/h/kg; Vd [14]: 6 L/kg; half-life [15]: > 3000 min; CL free [16]: 2.2 L/h/kg; inhibition (INH) [8]: Not Active; solubility kinetic [9]: < 19 µM; Activity [10]: 10% |
| 113 | 17 | 0.65 | 47 | CN(Cc1ccccc1)S(=O)(=O)c1cc(C(N)=O)c(NC(=O)c2ccn[nH]2)s1 | Activity [11]: 115%; Activity [17]: Active |
